In patent US9546362B2 (priority 2011, dated 2017):
Read-outs that look alike come from different tables or passages of the source.

Tests used:
[1] = test system: olivetolic acid synthesis; experiment: Coupled enzymatic assay for olivetolic acid synthesis (CsHCS2, MCS, olivetol synthase/PKS, OAS); assay type: biochemical, Cannabis sativa; details: 0.3 μg CsHCS2, 4 mM hexanoate, room temperature, 16 h, FIG. 4
Method: Eluted compounds were detected by absorbance at 263 nm and identified both by having the same retention times as isolated standards, and by their mass using a single quadrapole mass detector. […] HTAL=hexanoyltriacetic lactone, PDAL=pentyldiacetic lactone, OA=olivetolic acid, OL=olivetol.
The reaction was incubated at room temperature for 16 h, acidified and extracted in ethyl acetate. The polar fraction was recovered, evaporated to dryness and resuspended in 50 μL of methanol. An aliquot (5 μL) was analyzed by LCMS, and products were identified by their retention times and masses (see FIG. 4).

CsHCS2 [2] = target: T1, CsHCS2 (Cannabis sativa, UniProt A0A7J6I5X8)
Method: The reactions were incubated for 10 min at 40° C., terminated with 2 μL of 1 N HCl and stored on ice until analysis.
The reaction mixtures were diluted 1:100 with water and subsequently separated using a Waters Acquity UPLC system fitted with an Acquity UPLC BEH C18 column (1.7 μm particle size, 2.1×50 mm column), and analyzed by MS/MS using a Micromass Quattro Ultima triple-quadrupole mass spectrometer. The solvent system used was buffer A: 5 mM TEA and 3 mM acetic acid in water, and buffer B: 5 mM TEA and 3 mM acetic acid in 95:5 methanol:water. The mass spectrometer settings were: ESI positive mode, collision energy 27 V, cone 135 V, scanning for 866>359 transitions.

CsHCS1 [3] = target: T2, CsHCS1 (Cannabis sativa, UniProt H9A1V3, DEL715-715); experiment: Carboxylic acid substrate range, luciferin/luciferase measurement of unconsumed ATP; assay type: biochemical; design: His8 (pHIS8/GW vector) (N); made in house; host or cells: E. coli Rosetta 2; details: CsHCS1, 500 μM carboxylic acid, 50 μM ATP, 3 h at 29° C., FIG. 3A
Method: (§1) To test the range of carboxylic acids that CsHCS1 and CsHCS2 can activate, enzyme assays were performed with a broad range of carboxylic acids and limiting ATP. The assay conditions used were similar to Schneider K et al. (2005). A new type of peroxisomal acyl-coenzyme A synthetase from Arabidopsis thaliana has the catalytic capacity to activate biosynthetic precursors of jasmonic acid. The Journal of Biological Chemistry, 280:13962-72. […] All carboxylic acid substrates were dissolved in 2% v/v Triton™ X-100, leading to a final concentration 0.05% Triton X-100 in the assay. After reacting for 3 h at 29° C., 10 μL aliquots of the reactions were transferred to 96-well plates for a luciferin/luciferase based measurement of unconsumed ATP. The plates were analyzed with a 1420 Multilabel counter (PerkinElmer). To each well, 90 μL of a solution containing 100 mM Tris pH 7.8, 1 mM MgCl2, 2.3 μg luciferin, and 0.5 μg of luciferase was injected, and after shaking for 2 seconds the luminescence was measured for 15 seconds without a filter in place. Lower readings, compared to the reactions with no carboxylic acid substrate, indicate a higher amount of enzymatic activity and therefore substrate utilization. The results are shown in FIG. 3, wherein error bars represent the percent error of the ratio, n=3.

CsHCS2 [4] = target: T1, CsHCS2; experiment: as above; assay type: biochemical; details: CsHCS2, 500 μM carboxylic acid, 50 μM ATP, 3 h at 29° C., FIG. 3B
Method: as §1

CsHCS1 [5] = target: T2, CsHCS1; experiment: Hexanoyl-CoA synthetase activity (LC-MS/MS); assay type: biochemical; design: His8 (pHIS8/GW vector) (N); made in house; host or cells: E. coli Rosetta 2
CsHCS2 [6] = target: T1, CsHCS2; experiment: Kinetic properties, separate experiment (Table 5); assay type: biochemical
CsHCS1 [7] = target: T2, CsHCS1; details: CsHCS1, Table 5
[8] = test system: CC(C)(COP(=O)(O)OP(=O)(O)OC[C@H]1O[C@@H](n2cnc3c(N)ncnc32)[C@H](O)[C@@H]1OP(=O)(O)O)[C@@H](O)C(=O)NCCC(=O)NCCS; experiment: purified protein, by the assay type
CCCCCCCCCC(=O)O = experiment: purified protein, by the assay type; details: other: CsHCS1, Table 5
CCCCCC(=O)O [9] = experiment: purified protein, by the assay type; details: other: CsHCS1, Table 5
CCCCCC(=O)O [10] = experiment: purified protein, by the assay type; assay type: biochemical, Cannabis sativa; details: other: CsHCS1, substrate hexanoate; pH 9.0; 40.0 °C
CsHCS1 [11] = target: T2, CsHCS1; experiment: biochemical

T1 sequence (A0A7J6I5X8 entry or part of it): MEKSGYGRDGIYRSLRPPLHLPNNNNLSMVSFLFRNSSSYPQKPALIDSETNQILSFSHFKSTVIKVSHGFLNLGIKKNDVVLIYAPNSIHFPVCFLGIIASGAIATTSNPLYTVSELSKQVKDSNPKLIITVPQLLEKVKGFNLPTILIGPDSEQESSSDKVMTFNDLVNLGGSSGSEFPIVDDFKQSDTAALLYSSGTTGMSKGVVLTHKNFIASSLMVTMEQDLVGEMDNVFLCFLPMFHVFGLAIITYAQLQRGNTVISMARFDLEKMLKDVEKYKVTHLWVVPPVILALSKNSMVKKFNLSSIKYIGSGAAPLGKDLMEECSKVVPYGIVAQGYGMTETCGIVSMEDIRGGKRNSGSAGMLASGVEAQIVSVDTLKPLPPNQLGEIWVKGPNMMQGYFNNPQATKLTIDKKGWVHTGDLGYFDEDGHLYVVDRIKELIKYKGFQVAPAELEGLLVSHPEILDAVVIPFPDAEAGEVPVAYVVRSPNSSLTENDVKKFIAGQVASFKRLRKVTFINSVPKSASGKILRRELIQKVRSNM

## CsHCS2: Cannabis sativa hexanoyl-CoA synthetase 2, alkanoyl-CoA synthetase, SEQ ID NO: 4
[1]
  supply of hexanoyl-CoA for olivetolic acid synthesis: capable of providing sufficient hexanoyl-CoA substrate for the synthesis of olivetolic acid
CsHCS2 [2]
  pH optimum: 9
  temperature optimum: 40 °C

## [Mn+2] [Mn^2+]
CsHCS2 [2]
  activity with divalent cation: high

## CCCCC(=O)O [valerate]
CsHCS1 [3]
  utilization as substrate: to a lesser extent

## O=C(O)/C=C/c1ccc(O)cc1 [p-coumarate]
CsHCS2 [4]
  utilization as substrate: to a lesser extent

## CCCCCCCC(=O)O [octanoate]
CsHCS1 [3]
  utilization as substrate: utilize

## [Mg+2] [Mg^2+]
CsHCS1 [5]; CsHCS1, range of divalent cations tested
  use of divalent cation: optimally used
CsHCS2 [2]
  activity with divalent cation: high

## CCCC(=O)O [butanoate]
CsHCS2 [6]; read-out: Km
  Km: > 10 mM
CsHCS1 [7]
  Km: > 10 mM

## CsHCS1 (Cannabis sativa; DEL715-715)
[8]; other: CsHCS1, Table 5
  Km: 0.26 ± 0.05 μM μM
CCCCCCCCCC(=O)O
  Km: 1.7 ± 0.2 mM mM
CCCCCC(=O)O [9]
  Km: 3.7 ± 0.7 mM mM
CCCCCC(=O)O [10]
  Km: 6.1 ± 1.0 mM
  Vmax: 15.6±1.7 pKat
  kcat: 4.5 s⁻¹

## O=C(O)/C=C/c1ccccc1 [cinnamate]
CsHCS2 [4]
  utilization as substrate: able to utilize

## CCCCCCCCCC(=O)O [decanoate]
CsHCS2 [6]
  Ki: 121 ± 47.9 µM
CsHCS2 [6]; CsHCS2, Table 5
  Km: 0.0161 ± 0.0058 mM

## CC(C)(COP(=O)(O)OP(=O)(O)OC[C@H]1O[C@@H](n2cnc3c(N)ncnc32)[C@H](O)[C@@H]1OP(=O)(O)O)[C@@H](O)C(=O)NCCC(=O)NCCS [CoA, coenzyme A]
CsHCS2 [6]
  inhibition of CsHCS2: did not inhibit
CsHCS1 [11]
  Ki: 5100 ± 1800 µM

## CsHCS2 (Cannabis sativa)
[8]; other: CsHCS2, Table 5
  Km: 0.16 ± 0.01 μM μM

## [Ca+2] [Ca^2+]
CsHCS2 [2]
  activity with divalent cation: to a lesser extent

## [Co+2] [Co^2+]
CsHCS2 [2]
  activity with divalent cation: highest

B1: CsHCS1: Cannabis sativa hexanoyl-CoA synthetase 1, alkanoyl-CoA synthetase, SEQ ID NO: 2 (protein, listed as Cannabis sativa)
chain: MGKNYKSLDSVVASDFIALGITSEVAETLHGRLAEIVCNYGAATPQTWINIANHILSPDLPFSLHQMLFYGCYKDFGPAPPAWIPDPEKVKSTNLGALLEKRGKEFLGVKYKDPISSFSHFQEFSVRNPEVYWRTVLMDEMKISFSKDPECILRRDDINNPGGSEWLPGGYLNSAKNCLNVNSNKKLNDTMIVWRDEGNDDLPLNKLTLDQLRKRVWLVGYALEEMGLEKGCAIAIDMPMHVDAVVIYLAIVLAGYVVVSIADSFSAPEISTRLRLSKAKAIFTQDHIIRGKKRIPLYSRVVEAKSPMAIVIPCSGSNIGAELRDGDISWDYFLERAKEFKNCEFTAREQPVDAYTNILFSSGTTGEPKAIPWTQATPLKAAADGWSHLDIRKGDVIVWPTNLGWMMGPWLVYASLLNGASIALYNGSPLVSGFAKFVQDAKVTMLGVVPSIVRSWKSTNCVSGYDWSTIRCFSSSGEASNVDEYLWLMGRANYKPVIEMCGGTEIGGAFSAGSFLQAQSLSSFSSQCMGCTLYILDKNGYPMPKNKPGIGELALGPVMFGASKTLLNGNHHDVYFKGMPTLNGEVLRRHGDIFELTSNGYYHAHGRADDTMNIGGIKISSIEIERVCNEVDDRVFETTAIGVPPLGGGPEQLVIFFVLKDSNDTTIDLNQLRLSFNLGLQKKLNPLFKVTRVVPLSSLPRTATNKIMRRVLRQFSHFE
CsHCS1 [5]; enzyme CsHCS1
  pH optimum: 9
  temperature optimum: 40 °C
